Laboratory results from paper PMC6723591, “Anti-Inflammatory Cembrane-Type Diterpenoids and Prostaglandins from Soft Coral Lobophytum sarcophytoides” (Marine Drugs, 2019).

Tested on: LPS-activated NO production in RAW264.7 cells
Assay: Inhibition of LPS-activated NO production in RAW264.7 cells (Griess assay)
Type: cell-based
Details: Mus musculus, LPS-activated RAW264.7 cells
Description: All isolated compounds (except for 14 with limited amount) were tested for their inhibition activity against LPS-activated NO production in RAW264.7 cells using the Griess assay. […] The structure of PGA2 made a more positive contribution to the anti-inflammatory activity than those of PGB2 (16 vs. 15).
The anti-inflammation activity of the isolated compounds was evaluated according to the reported procedures.

Compound | IC50
COc1ccc2c(c1)c(CC(=O)O)c(C)n2C(=O)c1ccc(Cl)cc1 [indomethacin, reference compound] | 39.8 µM
CCCCCC(O)CCC1=C(CC=CCCCC(=O)O)C(=O)CC1 (stereo not drawn) [Compound 12, 13,14-dihydro-PGB2] | 24.8 µM
CCCCC[C@H](O)/C=C/C1=C(C/C=C\CCCC(=O)O)C(=O)CC1 [Compound 15, PGB2] | 15.9 µM
CCCCCC(O)C=CC1=C(CC=CCCCC(=O)O)C(=O)CC1 (stereo not drawn) [Compound 10, (5E)-PGB2] | 20.4 µM
CCCCC[C@H](O)/C=C/[C@H]1C=CC(=O)[C@@H]1C/C=C\CCCC(=O)O [Compound 16, PGA2] | 7.1 µM

Next, values leading:

IC50 | Compound
32.1 µM | CC(=O)C=C=C1C(C)(C)C[C@H](OC(C)=O)C[C@@]1(C)O [Compound 9, apo-9′-fucoxanthinone]
16.1 µM | CCCCCC(O)CCC1=C(CC=CCCCC(=O)OC)C(=O)CC1 (stereo not drawn) [Compound 13, 13,14-dihydro-PGB2-Me]
26.7 µM | CC1=CC2OCC(C)=C2CCC2(C)OC2CCC(C)(O)C=CC1 (stereo not drawn) [Compound 6]
17.6 µM | C=C1CC[C@@H](C(C)C)/C=C/[C@@](C)(O)C/C=C/[C@](C)(O)CC[C@@H]1O [Compound 7, (1S,2E,4S,6E,8S,11R)-2,6,12(20)-cembratriene-4,8,11-triol]
